The test system of data set [1] is Mycobacterium tuberculosis. The data set can be described thus: Antimycobacterial activity against Mycobacterium tuberculosis H37Rv incubated for 2 weeks. The class given is functional. The note with it: 336 h.
Data set [2] deals with Mycobacterium tuberculosis. Nature of the data set: Antimycobacterial activity against Mycobacterium tuberculosis H37Rv incubated for 5 weeks. In kind it is functional. The settings on record: 840 h.
Data set [3] has as its system Mycobacterium tuberculosis. Nature of the data set: Antimycobacterial activity against Mycobacterium tuberculosis H37Rv incubated for 3 weeks. The class given is functional. The note with it: 504 h.
Data set [4] concerns Mycobacterium tuberculosis. The data set can be described thus: Antimycobacterial activity against Mycobacterium tuberculosis H37Rv incubated for 4 weeks. In kind it is functional. The note with it: 672 h.
Data set [5] relates to Mycobacterium tuberculosis. The data set can be described thus: Antimycobacterial activity against Mycobacterium tuberculosis H37Rv ATCC 27294 by broth dilution method. In kind it is functional.
The test system of a further data set is J774. The data set can be described thus: Cytotoxicity against mouse J774 cells incubated for 24 hrs by MTT assay. In kind it is toxicity, cell-based. The note with it: j774, 24 h. (In general: Tetrazolium assays rely on reduction of a dye to a coloured formazan, in cell work by metabolically active cells.)
The test system of data set [6] is Mycobacterium tuberculosis. Nature of the data set: Antimycobacterial activity against non replicating Mycobacterium tuberculosis by broth dilution method. In kind it is functional.
The subject of data set [7] is Mycobacterium tuberculosis. The data set can be described thus: Antitubercular activity against Mycobacterium tuberculosis H37Rv assessed as inhibition of bacterial growth by alamar blue assay. The class given is functional. (Resazurin is reduced to fluorescent resorufin, in cell work by metabolically active cells.)
The subject of data set [8] is Mycobacterium tuberculosis. Nature of the data set: Antimycobacterial activity against Mycobacterium tuberculosis H37Rv. In kind it is functional.
Data set [9] has as its system Mycobacterium tuberculosis. Nature of the data set: Antimycobacterial activity against Mycobacterium tuberculosis H37Rv assessed as inhibition of bacterial growth incubated for 5 days by alamar blue assay. The class given is functional. The settings on record: 120 h, time 5 day.

Structures are written as SMILES. Values after ≈ are worked out from the molar mass of the structure shown. A value given as a limit tells only on which side of the number the result lay.

As a reminder, the MIC is the least concentration at which growth counts as inhibited. As for `CC(C)(C)n1cc(C(=O)O)c(=O)c2cc(F)c(-c3ccc(F)cc3F)cc21`, the MIC in data set [1] came to 4 µg/mL (≈ 10.7 µM); in [2], 8 µg/mL (≈ 21.3 µM); in data set [3], 8 µg/mL (≈ 21.3 µM); in data set [4], 8 µg/mL (≈ 21.3 µM).
For `CC(C)(C)n1cc(C(=O)O)c(=O)c2cc(F)c(Sc3ccccc3)cc21`, the MIC stood at 8 µg/mL (≈ 21.5 µM) in [1], 16 µg/mL (≈ 43.1 µM) in data set [2], 16 µg/mL (≈ 43.1 µM) in data set [3] and 16 µg/mL (≈ 43.1 µM) in data set [4].
In the case of `COc1ccc(-c2cc3c(cc2F)c(=O)c(C(=O)O)cn3C(C)(C)C)cc1`, the minimal inhibitory concentration (MIC) in data set [1] was found to be 0.5 µg/mL (≈ 1.35 µM); in [2], 2 µg/mL (≈ 5.41 µM); in [3] it was 1 µg/mL (≈ 2.71 µM); in [4], 1 µg/mL (≈ 2.71 µM).
Turning to `CC(C)(C)n1cc(C(=O)O)c(=O)c2cc(F)c(-c3cccnc3)cc21`, the minimal inhibitory concentration (MIC) in [1], in data set [2], in data set [3] and in data set [4] was 0.25 µg/mL (≈ 0.735 µM) throughout.
Regarding `CC(C)(C)n1cc(C(=O)O)c(=O)c2cc(F)c(C#Cc3ccccc3)cc21`, the minimum inhibitory concentration (MIC) in data set [1], in data set [2], in data set [3] and in data set [4] was over 16 µg/mL each time.
In the case of `CC(C)(C)n1cc(C(=O)O)c(=O)c2cc(F)c(-c3ccc(O)cc3)cc21`, the MIC in [1], in data set [2], in data set [3] and in [4] was 0.25 µg/mL (≈ 0.704 µM) in each case.
In the case of `Cc1cc(-c2cn(C[C@@]3(C)Cn4cc([N+](=O)[O-])nc4O3)nn2)ccc1F`, the minimal inhibitory concentration (MIC) in [5] worked out at 2 µg/mL (≈ 5.58 µM); in [6], 4 µg/mL (≈ 11.2 µM). In addition, the Activity with J774 is over 40 µg/mL.
For `CC(C)(C)n1cc(C(=O)O)c(=O)c2cc(F)c(-c3ccc(Cl)cc3)cc21`, the MIC in [1], in data set [2], in data set [3] and in [4] was 1 µg/mL (≈ 2.68 µM) in each case.
Consider `O=C(NNC(=O)c1cc(O)ccc1O)c1ccncc1`, for which the MIC in data set [7] is 50 µg/mL (≈ 183 µM).
Take `COc1ccc(-c2cc3c(cc2F)c(=O)c(C(=O)O)cn3C(C)(C)C)cn1`: the minimal inhibitory concentration (MIC) in data set [1] is 0.25 µg/mL (≈ 0.675 µM); in data set [2], 0.5 µg/mL (≈ 1.35 µM); in data set [3], 0.25 µg/mL (≈ 0.675 µM); in data set [4], 0.5 µg/mL (≈ 1.35 µM).
Consider `Cc1ccc(OCCc2cn(C[C@@]3(C)Cn4cc([N+](=O)[O-])nc4O3)nn2)cc1`, for which the minimal inhibitory concentration (MIC) in [5] and in data set [8] was 0.25 µg/mL (≈ 0.65 µM) each time. In the data set with J774, this compound gave an Activity of over 40 µg/mL.
For `C[C@]1(Cn2cc(-c3ccc(C(F)(F)F)cc3)nn2)Cn2cc([N+](=O)[O-])nc2O1`, the results for the MIC in data set [5] and in data set [6] were 2 µg/mL (≈ 5.07 µM) and 8 µg/mL (≈ 20.3 µM), respectively. In addition, the Activity with J774 was over 40 µg/mL.
As for `CC(C)(C)CCn1cc(C(=O)O)c(=O)c2cc(F)c(-c3ccccc3)cc21`, the minimum inhibitory concentration (MIC) was 4 µg/mL (≈ 10.9 µM) in data set [1], 8 µg/mL (≈ 21.8 µM) in data set [2], 8 µg/mL (≈ 21.8 µM) in data set [3] and 8 µg/mL (≈ 21.8 µM) in data set [4].
For `C[C@]1(Cn2cc(-c3ccc(F)cc3)nn2)Cn2cc([N+](=O)[O-])nc2O1`, the MIC was 1 µg/mL (≈ 2.9 µM) in data set [5] and 2 µg/mL (≈ 5.81 µM) in [6]. The Activity in the data set on J774 is over 40 µg/mL.
Take `CC(C)(C)n1cc(C(=O)O)c(=O)c2cc(F)c(-c3ccccc3)cc21`: the minimal inhibitory concentration (MIC) in data set [1] stood at 1 µg/mL (≈ 2.95 µM); in data set [2], 2 µg/mL (≈ 5.89 µM); in [3] it was 2 µg/mL (≈ 5.89 µM); in [4], 2 µg/mL (≈ 5.89 µM).
As for `CC(Br)C(=O)NNC(=O)c1ccncc1` (stereo not drawn), the MIC in data set [7] was found to be 50 µg/mL (≈ 184 µM).
Regarding `C[C@]1(Cn2cc(-c3ccc(F)cc3F)nn2)Cn2cc([N+](=O)[O-])nc2O1`, the MIC was determined as 1 µg/mL (≈ 2.76 µM) in [5] and 8 µg/mL (≈ 22.1 µM) in [6]. The compound further returned an Activity in the data set on J774 of over 40 µg/mL.
`Nc1ccc(O)c(C(=O)NNC(=O)c2ccncc2)c1`: in [7], the MIC turned out to be 50 µg/mL (≈ 184 µM).
Consider `O=C(NNC(=O)C1CCNC(Br)C1)c1ccncc1` (stereo not drawn), for which the MIC in data set [7] came out at 25 µg/mL (≈ 76.4 µM).
Consider `C[C@]1(Cn2cc(-c3ccc(OC(F)(F)F)cc3)nn2)Cn2cc([N+](=O)[O-])nc2O1`, for which the figures for the MIC in data set [5] and in data set [6] were 2 µg/mL (≈ 4.87 µM) and 4 µg/mL (≈ 9.75 µM), respectively. The Activity in the data set with J774 was over 40 µg/mL.
The like results for `C[C@]1(Cn2cc(-c3ccc(Oc4ccccc4)cc3)nn2)Cn2cc([N+](=O)[O-])nc2O1` were, in that order, 2 µg/mL (≈ 4.78 µM), 2 µg/mL (≈ 4.78 µM) and over 40 µg/mL.
Turning to `CC(C)(C)n1cc(C(=O)O)c(=O)c2cc(F)c(-c3cccc(Cl)c3)cc21`, the MIC in data set [1] was found to be 2 µg/mL (≈ 5.35 µM); in [2] it was 4 µg/mL (≈ 10.7 µM); in data set [3] it was 2 µg/mL (≈ 5.35 µM); in data set [4], 2 µg/mL (≈ 5.35 µM).
With `CC(C)c1ccc(-c2cc3c(cc2F)c(=O)c(C(=O)O)cn3C(C)(C)C)cc1`, the minimum inhibitory concentration (MIC) in data set [1] was 2 µg/mL (≈ 5.24 µM); in data set [2] it was 4 µg/mL (≈ 10.5 µM); in data set [3] it was 4 µg/mL (≈ 10.5 µM); in data set [4], 4 µg/mL (≈ 10.5 µM).
With `C[C@]1(Cn2cc(COc3ccc(OC(F)(F)F)cc3)nn2)Cn2cc([N+](=O)[O-])nc2O1`, the values for the MIC in data set [5] and in data set [6] were 2 µg/mL (≈ 4.54 µM) and 4 µg/mL (≈ 9.08 µM), respectively. Besides, the Activity with J774 was over 40 µg/mL.
The like results for `CCCCCc1cn(C[C@@]2(C)Cn3cc([N+](=O)[O-])nc3O2)nn1` were, in that order, 2 µg/mL (≈ 6.24 µM), 4 µg/mL (≈ 12.5 µM) and over 40 µg/mL.
In the case of `CC(C)(C)n1cc(C(=O)O)c(=O)c2cc(F)c(-c3ccccc3Cl)cc21`, the minimum inhibitory concentration (MIC) in [1], in [2], in data set [3] and in [4] was 8 µg/mL (≈ 21.4 µM) throughout.
Consider `CC(C)(C)n1cc(C(=O)O)c(=O)c2cc(F)c(-c3ccc(-c4ccccc4)cc3)cc21`, for which the minimal inhibitory concentration (MIC) in data set [1], in [2], in data set [3] and in data set [4] was 4 µg/mL (≈ 9.63 µM) each time.
Turning to `Cc1ccccc1-c1cc2c(cc1F)c(=O)c(C(=O)O)cn2C(C)(C)C`, the MIC in [1] was 8 µg/mL (≈ 22.6 µM); in data set [2] it was 16 µg/mL (≈ 45.3 µM); in data set [3] it was 8 µg/mL (≈ 22.6 µM); in data set [4], 8 µg/mL (≈ 22.6 µM).
`O=C(COc1ccccc1)NNC(=O)c1ccncc1`: the MIC in data set [7] was 25 µg/mL (≈ 92.2 µM).
Consider `Cc1ccc(-c2cc3c(cc2F)c(=O)c(C(=O)O)cn3C(C)(C)C)cc1`, for which the MIC in data set [1], in data set [2], in data set [3] and in data set [4] was 1 µg/mL (≈ 2.83 µM) in each case.
For the compound `CC(C)(C)OC(=O)Nc1ccc(-c2cc3c(cc2F)c(=O)c(C(=O)O)cn3C(C)(C)C)cc1`, the MIC in data set [1], in [2], in data set [3] and in data set [4] was 4 µg/mL (≈ 8.8 µM) each time.
For `COc1cccc(-c2cc3c(cc2F)c(=O)c(C(=O)O)cn3C(C)(C)C)c1`, the minimal inhibitory concentration (MIC) in [1], in data set [2], in [3] and in data set [4] was 1 µg/mL (≈ 2.71 µM) each time.
Regarding `CC(C)(C)n1cc(C(=O)O)c(=O)c2cc(F)c(Oc3ccccc3)cc21`, the MIC stood at 8 µg/mL (≈ 22.5 µM) in data set [1], 16 µg/mL (≈ 45 µM) in [2], 16 µg/mL (≈ 45 µM) in data set [3] and 16 µg/mL (≈ 45 µM) in [4].
On to `CCC(C)(C)n1cc(C(=O)O)c(=O)c2cc(F)c(-c3ccccc3)cc21`, for which the MIC amounted to 8 µg/mL (≈ 22.6 µM) in data set [1], 16 µg/mL (≈ 45.3 µM) in data set [2], 16 µg/mL (≈ 45.3 µM) in [3] and 16 µg/mL (≈ 45.3 µM) in data set [4].
Turning to `COc1ccc(-c2cc3c(cc2F)c(=O)c(C(=O)O)cn3C2CC2)cn1`, the MIC in data set [1], in data set [2], in data set [3] and in data set [4] was 0.5 µg/mL (≈ 1.41 µM) throughout.
As to `O=C(O)c1cn(C2CC2)c2cc(N3CCNCC3)c(F)cc2c1=O` [CIPROFLOXACIN], the MIC in [7] worked out at 3.12 µg/mL (≈ 9.43 µM); in data set [1], 0.25 µg/mL (≈ 0.754 µM); in data set [2], 0.25 µg/mL (≈ 0.754 µM); in data set [8] it was 3.12 µg/mL (≈ 9.42 µM); in [9], 3.12 µg/mL (≈ 9.42 µM); in data set [3] it was 0.25 µg/mL (≈ 0.754 µM). The compound also displayed a minimum inhibitory concentration (MIC) in data set [4] of 0.25 µg/mL (≈ 0.754 µM).

Values taken from ChEMBL document CHEMBL5244273, “Tuberculosis: An Overview of the Immunogenic Response, Disease Progression, and Medicinal Chemistry Efforts in the Last Decade toward the Development of Potential Drugs for Extensively Drug-Resistant Tuberculosis Strains” (J Med Chem, 2021).
